In publication PMC7852560 (Neuropsychopharmacology, 2020):

Legend:
CB1R [1] = molecular target: T1, CB1R (Homo sapiens, UniProt P21554); assay: cell-based; type: cell-based; conditions: hCB1R CHO cells, data not shown
Description: The cAMP BRET experiments were performed as previously described. Briefly, hCB1R HEK293 cells were transfected with 5 µg/10 cm dish of the CAMYEL biosensor using polyethylenimine. After 24 h, the cells were plated into white 96-well plates (PerkinElmer) at a density of 60,000 cells/well.
Cyclic AMP accumulation was measured using a DiscoverX HitHunter® cAMP Assay for Small Molecules (DiscoverX, Fremont, CA). hCB1R CHO cells were seeded at a density of 40,000 cells/well in 96-well white plates and grown overnight at 37 °C, 5% CO2 in a humidified incubator. […] Vehicle concentration was 1% DMSO, 0.1% BSA. Following agonist incubation, 15 µl of cAMP antibody reagent and 60 µl of working cAMP detection solution (containing 19 parts cAMP lysis buffer, 5 parts Substrate Reagent 1, 1 part Substrate Reagent 2 and 25 parts of cAMP Solution D) were added to all wells. Assay plates were incubated in the dark for 1 hr at room temperature, followed by addition of 60 µl cAMP solution A to all wells and incubation for 3 hr at room temperature in the dark. Plates were read using a GloMax Discover plate-reader (Promega, Madison, WI).

CB1R [2] = molecular target: T1, CB1R; design: beta-galactosidase enzyme fragment (EFC; ProLink by own knowledge); method as in PMID 16113085, PMID 18029031; conditions: cited from earlier work
CB1R [3] = molecular target: T1, CB1R; design: beta-galactosidase enzyme fragment (EFC; ProLink by own knowledge); method as in PMID 16113085, PMID 18029031; conditions: cited from earlier work; remark: listed apart in the source
Male C57Bl/6J mice = assay: Cannabinoid-induced tetrad; type: in vivo; conditions: 10 mg/kg i.p., 30 min prior
Description: Male C57Bl/6J mice (PD > 70) were tested on the cannabinoid-induced tetrad, as previously described.
(i.p.) before testing. The tetrad was performed (1) catalepsy, (2) locomotion, (3) temperature, and (4) analgesia. Catalepsy: time (s) spent immobile with front paws on a plastic rod (1.5cm diameter), at a height of 4.5-cm from the table, before adjusting abnormal posture (either front paws being removed from the bar, or back paws climbing onto bar). Locomotion: horizontal activity (cm) was immediately measured in an open field test, following catalepsy, for 15-min. in 1-min bins. Temperature: rectal temperature (°C) was measured immediately following open-field testing, using a thermometer with rectal probe (Labcorp, Fisher, Waltham, MA). Analgesia: latency (s) to withdraw tail from hot water bath (52 °C), to assess tail-flick antinociception, was completed immediately following temperature readings.

Male Sprague Dawley rats = assay: Conditioned avoidance response (CAR); type: in vivo; conditions: rats, ABM300 10 mg/kg, olanzapine 1 mg/kg i.p. daily
Description: Male Sprague Dawley rats (PD>63) were trained on a CAR protocol and responding following drug exposure was determined. […] Animals were trained to learn a house light (CS) as predictive of an avoidable 0.6mA scrambled foot shock (US). Each session consisted of 50 trials and animals avoided >70% of trials on the final acquisition session were tested for CAR during vehicle baseline, drug exposure, and re-emergence. In addition to CAR testing, both temperature and catalepsy were recorded in these animals (measure of potential CB1R agonism). Temperature: recorded on first day of drug exposure, prior to injection and 60-90-min. following drug exposure.

GluN1KD mice [4] = assay: Pre-pulse inhibition in GluN1KD mice; type: in vivo; conditions: ABM300 10 mg/kg, OLA 1 mg/kg i.p.
Description: Pre-Pulse Inhibition (PPI): PPI of the acoustic startle response was measured on day 3, via SR-LAB equipment and software from San Diego Instruments. Accelerometers were calibrated to 700±5 mV and output voltages were amplified and analyzed for voltage changes using SR Analysis (San Diego Instruments, San Diego, CA, USA), and exported as an excel file. Background white noise was maintained at 65dB. PPI was measured in a 30-min test with 80 randomized trials of: (1) 10 trials pulse alone (2) 10 trials pre-pulse alone (for each pre-pulse), (3) 10 trials pre-pulse plus pulse (for each pre-pulse), and (4) 10 trials no pulse. 5 pulse alone trials were performed before and after the 80 trials, totaling 90 trials per run. The pre-pulse (4dB, 8dB, or 16dB) was presented 100ms prior to the startle pulse […]. The inter-stimulus interval (ISI) was randomized between 5 and 20s. Experimental mice were placed in a cylindrical tube on a platform in a soundproof chamber. Mice were allowed to acclimatize in the chamber and to the background noise for 300s, followed by 5 consecutive pulse alone trials, then by 80 randomized trials (as described above) and then 5 consecutive pulse alone trials. Pre-pulse inhibition was measured as a decrease in the amplitude of startle response to a 100dB acoustic startle pulse, following each pre-pulse (4dB, 8dB and 16dB).

GluN1KD mice [5] = assay: Open-field test in GluN1KD mice; conditions: ABM300 10 mg/kg, OLA 1 mg/kg i.p., 30 min before test
C57Bl/6J mice = type: in vivo; conditions: 10 mg/kg i.p., 30 min before test, compared to vehicle
Description: (i.p.) before testing. The EPM was composed of 4 opaque-white arms (2 opposite arms closed, 2 opposite arms open), arranged in a plus shape, with an open center. The dimensions were as follows; maze elevation (38.7cm), open arm (L:30.5 cm, W:5 cm, H:0 cm), closed arm (L:30.5 cm, W:5 cm, H:15.2 cm) and center (5 cm x 5 cm). The experiment mouse was placed in the center of the maze and allowed to freely explore the maze for 8-min (50lux), while being tracked with an overhead camera. Open and closed arm times were recorded and collected by Biobserve Viewer3 software. The percentage of time spent in the open arms as compared to closed arms and center time was calculated and expressed as a percent of time spent in the open or closed arms of the maze.

T1 sequence (P21554 whole entry): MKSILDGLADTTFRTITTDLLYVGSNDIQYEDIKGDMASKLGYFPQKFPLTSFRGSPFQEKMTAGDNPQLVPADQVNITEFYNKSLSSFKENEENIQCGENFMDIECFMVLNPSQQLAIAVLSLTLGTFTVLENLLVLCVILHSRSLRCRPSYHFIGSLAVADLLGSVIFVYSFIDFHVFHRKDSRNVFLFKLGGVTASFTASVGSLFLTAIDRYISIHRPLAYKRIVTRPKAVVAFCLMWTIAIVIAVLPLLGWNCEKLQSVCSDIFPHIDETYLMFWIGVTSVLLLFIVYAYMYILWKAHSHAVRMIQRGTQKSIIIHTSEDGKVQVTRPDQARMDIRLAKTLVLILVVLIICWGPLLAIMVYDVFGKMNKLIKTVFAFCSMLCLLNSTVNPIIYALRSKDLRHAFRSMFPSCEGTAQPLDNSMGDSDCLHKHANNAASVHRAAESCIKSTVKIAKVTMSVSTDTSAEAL

## CCCCCCC(C)(C)c1ccc([C@@H]2C[C@H](O)CC[C@H]2CCCO)c(O)c1 [CP55,940, reference compound]
CB1R [1]
  effect on forskolin-stimulated cAMP accumulation: inhibited

## CCc1c(C(=O)NCCc2ccc(N3CCCCC3)cc2)[nH]c2ccc(Cl)cc12 [Org275]
CB1R [2]
  CB1R agonist-mediated signaling: acts as an inhibitor
CB1R [3]
  Bmax of [3H] CB1R agonist binding: increases the Bmax

## CCCCCc1cc(O)c2c(c1)OC(C)(C)[C@@H]1CCC(C)=C[C@@H]21 [THC, Δ^9-tetrahydrocannabinol, reference compound]
Male C57Bl/6J mice
  tetrad: catalepsy-induced immobility time: produced effects
  tetrad: percent inhibition of locomotor activity (15 min): produced effects
  tetrad: rectal temperature: produced effects
  tetrad: tail withdrawal (% MPE): produced effects

## Cc1cc2c(s1)Nc1ccccc1N=C2N1CCN(C)CC1 [olanzapine, reference compound]
Male Sprague Dawley rats
  escape failures in CAR: neither ABM300 nor olanzapine affected escape failures
  escape responding during CAR: enhanced escape responding
Male Sprague Dawley rats; 30 min prior
  avoidance behavior in CAR: attenuated avoidance behavior
GluN1KD mice [4]
  acoustic startle response: did not respond
  sensorimotor gating deficits (PPI; 4, 8, 16 dB): did not respond
GluN1KD mice [5]
  exaggerated stereotypic activity: Effects of ABM300 are similar to those seen with olanzapine
  novelty-induced hyperactivity (distance traveled): Effects of ABM300 are similar to those seen with olanzapine
  rearing behavior (vertical exploration): Effects of ABM300 are similar to those seen with olanzapine

## Cc1c(C(=O)NN2CCCCC2)nn(-c2ccc(Cl)cc2Cl)c1-c1ccc(Cl)cc1 [rimonabant, reference compound]
C57Bl/6J mice
  time spent in the open arms (EPM): significantly reduced
